Values belong to the molecule of their own block, whether it stands above or below them.
Tests used:
DRG neuronal cells = test: Peak [Ca^2+]i transients in cultured dorsal root ganglion neurons (Fura-2); assay type: cell-based, rat; details: for Number of capsaicin-sensitive cells responding / Peak [Ca^2+]i (Average ±SD): 2 mM Ca^2+
Procedure: DRG from neonatal (3-5 days old) rat or adult Sprague-Dawley rats were incubated in Hanks CMF saline with 0.05% collagenase and 0.25% trypsin for 25 min at 37° C. Individual cells were obtained by trituration with fire polished Pasteur pipettes of diminishing diameters. Neurones were isolated from the cell suspension in 30% Percoll and then plated on collagen coated coverslips or in 24-well plates, then cultured in neurobasal medium with B27 supplement, 50 ng/ml 2.5 S nerve growth factor, 2 mM 1-glutamine and 100 U/ml penicillin/streptomycin. Cultures were maintained at 37° C with 5% CO2. 30% Percoll increases the percentage of capsaicin-sensitive DRG neurones up to 70%. For peak [Ca^2+]i transients measurements, cells on coverslips were incubated with 5 µM Fura-2 AM for 30 min at 37° C. The coverslips were then mounted on a chamber attached to a fast sample application perfusion system which allows changing solutions in the second range. Recordings were made on the stage of a Nikon Diaphot inverted microscope fitted with a Nikon 40 x Fluo (NA 0.85) DL Ph3 or 40 x Fluo (NA 1.3) oil objective. [Ca^2+]i was calculated from dual excitation wavelength (340/380 nm) fluorescence measurements following an intracellular calibration procedure by the Grynkiewicz equation, using MCID M2/M4 v.3.0 (Imaging Res. Inc.) software. Cells were continuously perfused with a solution consisting of 140 mM NaCl, 2 mM CaCl2, 5 mM KCl, 20 mM HEPES, 10 mM glucose, pH 7.4. To study KCl evoked depolarisation, 50 mM NaCl was replaced by equimolar KCl. Cytoplasmic localisation of Fura-2 was tested with the Mn^2+ quenching technique (Dedov and Roufogalis, 1998). All experiments were performed at room temperature (20-23°C).
Typical changes in [Ca^2+]i upon depolarisation were evoked by 50 mM KCl and by application of 1 µM capsaicin; both were applied for 30 sec. Capsaicin-evoked peak [Ca^2+]i transients are characterised by a fast rise and long-steady state [Ca^2+]i clearance from the cytoplasm. In capsaicin-sensitive cells the half-time of cytoplasmic Ca^2+ clearance was proportional to the amplitudes of peak [Ca^2+]i transients.
To examine the effect of gingerol derivatives, one or several compounds in succession at a concentration of 10 µM were applied for 1 min to the DRG neuronal cells followed by washing out for 4 min with physiological solution. To the capsaicin-sensitive cells, 10 µM capsaicin and 50 mM KCl were applied, respectively, to confirm the viability of the cells. In addition, morphological appearances of the cells were also examined at the end of experiment. […]

Cyclo-oxygenase (COX) = test: Cyclo-oxygenase assay in RBL 2H3 cells (PGD2 EIA); assay type: cell-based, rat
Procedure: Cyclo-oxygenase (COX) assay was performed with cells in culture prepared from rat basophilic leukemia (RBL) 2H3 cell lines. Cells were cultured in EMEM containing 10% fetal calf serum and antibiotic until cells reached confluence. Harvested cells were subsequently seeded on 24-well plates at 1 x 10^6 cells/ml then incubated at 37°C for 3 hours. Cells were washed twice with incubation buffer (1.5 ml) containing 5 mM Hepes, 140 mM NaCl, 5 mM KCl, 0.6 mM MgCl2, 1 mM CaCl2 and […]. Cells were then covered with 0.49 ml of buffer, followed by addition of samples/solvents (0.005 ml) and incubated at 37 °C for 5 min on an orbital shaker. Arachidonic acid (0.005 ml, containing 50% EtOH) was subsequently added, and the plate was incubated at similar conditions for a further 10 min. The supernatant (0.1 ml) was aliquoted for methoxime derivatisation of PGD2, which was carried out by heating the supernatant with methoxime solution (1:1) at 60 °C for 30 min according to the instructions provided with the kit. The resultant solution was diluted with EIA buffer and stored on ice for EIA, following the protocol provided with the kit.
Validation of COX enzyme activity was carried out using EIA in which the enzyme activity was characterised against various concentrations of AA and a time course of enzyme activity.
[…] Indomethacin was used as reference compound. The concentration of DMSO in the assay was maintained at 1.5%.

Lipoxygenase (LP) = molecular target: T1, Lipoxygenase (LP) (Rattus norvegicus, UniProt P12527); test: Lipoxygenase assay with cell-free enzyme from RBL 2H3 cells (EIA); assay type: biochemical; details: for activity at 10 µM: final concentration of 10 µM
T1 construct: cell-free enzyme (Wong et al, 1991) prepared from rat basophilic leukemia (RBL) 2H3 cell lines; endogenous in cells; host or cells: RBL 2H3 (rat basophilic leukemia), 15,000 g supernatant of cells disrupted by nitrogen cavitation
T1 sequence (P12527 1-673): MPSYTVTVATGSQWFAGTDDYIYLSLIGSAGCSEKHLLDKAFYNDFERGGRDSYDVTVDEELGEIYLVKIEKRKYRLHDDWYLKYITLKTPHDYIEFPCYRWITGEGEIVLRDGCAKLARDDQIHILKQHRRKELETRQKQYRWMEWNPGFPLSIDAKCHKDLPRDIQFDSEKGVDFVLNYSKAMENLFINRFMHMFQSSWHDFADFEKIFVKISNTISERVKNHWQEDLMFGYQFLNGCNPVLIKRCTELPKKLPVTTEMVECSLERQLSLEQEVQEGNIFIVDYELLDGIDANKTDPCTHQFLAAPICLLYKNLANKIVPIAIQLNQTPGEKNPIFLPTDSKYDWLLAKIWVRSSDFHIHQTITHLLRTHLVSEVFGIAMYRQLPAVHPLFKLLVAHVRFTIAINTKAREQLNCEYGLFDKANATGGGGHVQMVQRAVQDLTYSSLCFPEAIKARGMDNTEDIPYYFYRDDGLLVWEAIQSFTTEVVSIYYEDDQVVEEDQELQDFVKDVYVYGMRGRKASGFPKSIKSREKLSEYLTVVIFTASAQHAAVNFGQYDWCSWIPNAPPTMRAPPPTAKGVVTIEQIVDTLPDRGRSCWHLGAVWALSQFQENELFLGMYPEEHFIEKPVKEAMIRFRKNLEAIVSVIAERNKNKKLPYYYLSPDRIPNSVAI
Procedure: Lipoxygenase (LP) assay was performed with cell-free enzyme (Wong et al, 1991) prepared from rat basophilic leukemia (RBL) 2H3 cell lines. Cells were cultured in EMEM containing 10% fetal calf serum and antibiotic until cells reached confluence. Harvested cells were resuspended in Hepes (10 mM) buffer, pH 7.4, containing 1 mM EDTA at 1 x 10^7 cells/ml, and disrupted by nitrogen cavitation using a Parr bomb at 750 psi for 15 min. The broken cells were centrifuged at 15,000 g for 30 min. Aliquots (0.1 ml) of the supernatant were preincubated with or without drugs in Hepes buffer (10 mM Hepes, pH 7, 1 mM EDTA and 150 mM NaCl) for 5 min, and the reaction was initiated with the addition of 50 µl of CaCl2 (16 mM), 50 µl of ATP (2 mM), 5 µl of PAF (2.5 mg/ml) and 5 µl of AA (2.5 mM). The reaction mixture ([…]) was incubated at room temperature for a further 8 min, then diluted with EIA buffer at 1/200 and 1/2000 dilutions and stored on ice for EIA following the protocol provided with the kit.
Validation of LP enzyme activity was carried out by a UV spectrophotometric method in which the enzyme activity was characterised against various concentrations of Ca^2+, ATP, PAF and AA with the measurement of the formation of diene conjugated products of LP at 235 nm.
All compounds were dissolved in DMSO and assayed at a final concentration of 10 µM. NDGA was used as reference compound. The concentration of DMSO in the assay was maintained at 1.5%.

guinea pig atria = test: Organ bath assay on isolated guinea pig atria (rate and force of contraction)
Procedure: Male guinea pigs, 3-4 weeks old, were killed by rapid cervical dislocation without induced anaesthesia. Then, the guinea pigs were dissected to isolate the atria which were immediately mounted vertically in an organ bath containing Krebs-Henseleit solution oxygenated with carbogen.
One gram tension was applied to the atria and the base line continuously adjusted until it was stable for 20 mins. The rate and force of contraction were recorded using Mac Lab equipment.
Test substances in DMSO were assayed to a maximum concentration of 50 µM at a final concentration of 2.5 % of DMSO.

SR Ca^2+-ATPase = molecular target: T2, SR Ca^2+-ATPase (Canis lupus familiaris, UniProt O46674); test: Sarcoplasmic reticulum Ca^2+-ATPase assay; assay type: biochemical, dog; details: result in words
T2 construct: Effect of gingerols and their derivatives on the Ca^2+-ATPase activity of dog cardiac SR; from tissue; host or cells: dog heart (cardiac sarcoplasmic reticulum)
Procedure: A portion at each concentration (54 µl) was aliquoted into 4 designated wells of the microplate (two of four wells were controls). Each well was mixed with ATP solution (20 mM, 6 µl), except the controls, using an 8 channel pipette. The controls were assayed in the absence of ATP or calcium.
The plate was incubated with the lid on, for 30 min at 37°C, colour reagent (160 µl) was then added and mixed with citrate solution (34%, 30 µl). The plate was developed at room temperature for 30 min then absorbance at 655 nm was read from the microplate reader. The Ca^2+-ATPase activity was quantitated, from a Pi standard curve, as concentration of liberated inorganic phosphate.
Stock solutions (10 mM) of test substance were prepared in DMSO, then series dilutions were made either in DMSO or in 1M HEPES to produce the dose-response concentrations. The maximum concentration of DMSO in the final assay solution was 2.5%.
Each concentration of test substance was assayed in duplicate in the presence and absence of ATP or calcium. Phosphate standards are run on each plate as follows:
Effect of gingerols and their derivatives on the Ca^2+-ATPase activity of dog cardiac SR.

[1] = result in words, guinea pig atria

T2 sequence (O46674 whole entry): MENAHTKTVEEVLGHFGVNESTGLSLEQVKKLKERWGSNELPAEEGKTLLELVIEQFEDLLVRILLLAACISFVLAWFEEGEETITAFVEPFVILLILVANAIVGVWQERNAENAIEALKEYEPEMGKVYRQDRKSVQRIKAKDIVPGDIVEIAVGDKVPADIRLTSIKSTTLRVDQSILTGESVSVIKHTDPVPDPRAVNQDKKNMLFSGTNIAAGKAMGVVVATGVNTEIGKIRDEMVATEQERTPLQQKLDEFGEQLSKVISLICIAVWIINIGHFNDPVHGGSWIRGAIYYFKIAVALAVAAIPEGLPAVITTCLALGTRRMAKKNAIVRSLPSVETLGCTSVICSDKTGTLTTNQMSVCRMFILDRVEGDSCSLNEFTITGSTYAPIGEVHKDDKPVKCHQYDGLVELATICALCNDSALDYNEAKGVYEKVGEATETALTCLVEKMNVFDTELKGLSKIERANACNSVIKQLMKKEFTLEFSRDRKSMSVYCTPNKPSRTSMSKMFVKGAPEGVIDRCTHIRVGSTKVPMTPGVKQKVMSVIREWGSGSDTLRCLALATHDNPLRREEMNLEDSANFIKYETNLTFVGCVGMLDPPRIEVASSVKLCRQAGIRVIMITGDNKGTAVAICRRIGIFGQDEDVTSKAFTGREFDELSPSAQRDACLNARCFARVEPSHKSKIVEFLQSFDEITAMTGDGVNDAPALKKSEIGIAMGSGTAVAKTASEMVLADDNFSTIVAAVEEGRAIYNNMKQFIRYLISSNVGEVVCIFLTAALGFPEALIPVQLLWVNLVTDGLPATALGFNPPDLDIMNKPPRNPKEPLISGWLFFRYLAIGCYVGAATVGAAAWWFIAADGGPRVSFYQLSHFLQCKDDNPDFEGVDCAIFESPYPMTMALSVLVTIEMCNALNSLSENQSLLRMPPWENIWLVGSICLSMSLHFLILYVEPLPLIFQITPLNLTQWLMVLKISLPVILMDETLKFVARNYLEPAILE

activity at 10 µM (Lipoxygenase (LP)): 61%
Compound: CCCCCCCCCC(O)C(=O)c1ccc(O)c(OC)c1 (centres unmarked) [2-hydroxy-1-(4-hydroxy-3-methoxyphenyl)undecan-1-one]
Number of capsaicin-sensitive cells responding (DRG neuronal cells; 10 µM applied for 1 min): 2
Peak [Ca^2+]i (Average ±SD) (DRG neuronal cells; 10 µM applied for 1 min): 215 ± 7 nM
Cyclooxygenase activity % activity (Cyclo-oxygenase (COX); final concentration of 10 µM): 95%

Compound: COc1cc(CNC(=O)CCCC/C=C/C(C)C)ccc1O [Capsaicin, reference compound]
tachycardial and inotropic effects on guinea pig atria (guinea pig atria; result in words): tachycardial and inotropic effects
Number of capsaicin-sensitive cells responding (DRG neuronal cells; high responses, 10 µM): 5
Peak [Ca^2+]i (Average ±SD) (DRG neuronal cells; high responses, 10 µM): 824 ± 122 (high responses) nM
evoked [Ca^2+]i transients (DRG neuronal cells; in Ca^2+-free medium or on application of ruthenium red (1 µM)): abolished or greatly diminished
Number of capsaicin-sensitive cells responding (DRG neuronal cells; low responses, 10 µM): 10
Peak [Ca^2+]i (Average ±SD) (DRG neuronal cells; low responses, 10 µM): 134 ± 78 (low responses) nM

Compound: C[C@H]1O[C@@H](O[C@H]2[C@@H](O)C[C@H](O[C@H]3[C@@H](O)C[C@H](O[C@H]4CC[C@@]5(C)[C@H](CC[C@@H]6[C@@H]5C[C@@H](O)[C@]5(C)[C@@H](C7=CC(=O)OC7)CC[C@]65O)C4)O[C@@H]3C)O[C@@H]2C)C[C@H](O)[C@@H]1O [Digoxin, reference compound]
time for tension to reach maximum after addition of a dose (guinea pig atria; guinea pig atria): a few mins

Compound: COc1ccc2c(c1)c(CC(=O)O)c(C)n2C(=O)c1ccc(Cl)cc1 [Indomethacin, reference compound]
Cyclooxygenase activity % activity (Cyclo-oxygenase (COX); 1 µM): 23%

activity at 0.5 µM (Lipoxygenase (LP); 0.5 µM): 20%
Compound: CC(Cc1ccc(O)c(O)c1)C(C)Cc1ccc(O)c(O)c1 (centres unmarked) [NDGA, reference compound]

activity at 10 µM (Lipoxygenase (LP)): 0%
Compound: CCCCCCCC=CC(=O)CCc1ccc(O)c(OC)c1 [[8]-shogaol, 1-(4-hydroxy-3-methoxyphenyl)dodecan-4-ene-3-one, reference compound]
Number of capsaicin-sensitive cells responding (DRG neuronal cells; 10 µM applied for 1 min): 2
Peak [Ca^2+]i (Average ±SD) (DRG neuronal cells; 10 µM applied for 1 min): 110 ± 56 nM
Cyclooxygenase activity % activity (Cyclo-oxygenase (COX); final concentration of 10 µM): 21%

Compound: COc1cc(CCC(=O)CC(O)CCCCCCC(O)CC(=O)CCc2ccc(O)c(OC)c2)ccc1O (centres unmarked) [bisgingerol, 5,12-dihydroxy-1,16-bis(4-hydroxy-3-methoxyphenyl)hexadecane-3,14-dione]
FORCE OF CONTRACT^n (guinea pig atria; [1]): inactive
HEART RATE (guinea pig atria; [1]): inactive

SR Ca^2+-ATPase (SR Ca^2+-ATPase): inactive
Compound: CCCCCCCC(O)CC(=O)CCc1ccc2c(c1)OCO2 (centres unmarked) [drawing 42]

— patent EP1056700B1, “MEDICINAL USES OF PHENYLALKANOLS AND DERIVATES” (ZingoTX Pty Ltd, priority 1997, dated 1999)
